One assay concerns the target T1, D2 dopamine receptors (Rattus norvegicus, UniProt P61169).
T1 construct: Striatal tissue from the brains of male Charles River CD rats; from tissue; host or cells: rat striatum membranes
Briefly: inhibition of tritiated (S)-sulpiride binding to D2 dopamine receptors in rat striatal tissue. The note with it: rat striatum; for inhibition at 1 µM: at 10^-6 M, tritiated (S)-sulpiride, read-out: % displacement of radio ligand, D2. As for the experimental part: Striatal tissue from the brains of male Charles River CD rats weighing between 140-250 g were homogenised in ice-cold 50 mM Tris-HCl buffer (pH 7.7 when measured at 25° C.) and centrifuged at 40,000 g for 10 minutes. The pellet was resuspended in Tris salts buffer (50 mM Tris-HCl buffer containing 120 mM NaCl, 5 mM KCl, 2 mM CaCl2 and 1 mM MgCl2 with the addition of 6 mM ascorbic acid; pH 7.7 when measured at 25° C.), and again centrifuged at 40,000 g for 10 minutes. The final pellet was stored at -80° C. Before each test the pellet was resuspended in Tris salts buffer (equivalent to 2 mg wet weight of tissue/ml). Aliquots (720 μl; equivalent to 1.44 mg wet weight of tissue/tube) of this suspension were then added to tubes containing the ligand (40 μl; 1 nM) and Tris salts buffer (40 μl; total binding) or spiroperidol (40 μl; 10 nM; non-specific binding) or test compound (40 μl; at a single concentration of 10^-6 M or at 6 concentrations ranging from 10^-11 -10^-4 M). The ligand was tritiated (S)-sulpiride and the mixture was incubated at 4° C. for 40 minutes before the incubation was terminated by rapid filtration.
The filters were washed with ice-cold Tris-HCl buffer and dried. The filters were punched out in to vials, scintillation fluid added and were left for about 20 hours before being counted by scintillation spectrophotometry. The percentage displacement of specific binding of the tritiated ligand was calculated for the single concentration (10^-6 M) of test compound. Displacement curves were then produced over a range of concentrations for those compounds which displaced ≥50% of specific binding of the tritiated ligand at 10^-6 M. The concentration which gave a 50% inhibition of specific binding (IC50) was obtained from the curve. The inhibition coefficient Ki was then calculated using the formula [formula] in [ligand] is the concentration of the tritiated ligand used and KD is the 2 equilibrium dissociation constant for the ligand.

A further assay has as its target T2, 5-HT1A receptors (Rattus norvegicus, UniProt P19327).
T2 construct: Hippocampal tissue from the brains of male Sprague-Dawley rats; from tissue; host or cells: rat hippocampus membranes
T2 sequence (P19327 1-422): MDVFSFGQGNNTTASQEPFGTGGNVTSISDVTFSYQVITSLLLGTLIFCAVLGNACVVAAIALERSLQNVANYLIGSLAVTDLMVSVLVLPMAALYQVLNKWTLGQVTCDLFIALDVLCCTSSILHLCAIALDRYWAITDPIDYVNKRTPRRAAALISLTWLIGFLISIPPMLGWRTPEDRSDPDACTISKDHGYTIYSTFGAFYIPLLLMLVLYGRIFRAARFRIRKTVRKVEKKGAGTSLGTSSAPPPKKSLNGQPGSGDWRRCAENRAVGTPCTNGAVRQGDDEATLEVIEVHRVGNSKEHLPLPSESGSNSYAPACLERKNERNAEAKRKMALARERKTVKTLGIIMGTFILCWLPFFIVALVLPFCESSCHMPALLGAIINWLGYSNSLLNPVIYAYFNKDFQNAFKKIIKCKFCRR
Briefly: inhibition of [3H]8-OH-DPAT binding to 5-HT1A receptors in rat hippocampal tissue. The note with it: rat hippocampus; for inhibition at 1 µM: at 10^-6 M, [3H]8-OH-DPAT, read-out: % displacement of radio ligand, 5-HT1A. As for the experimental part: Hippocampal tissue from the brains of male Sprague-Dawley rats (Charles River; weight range 150-250 g) was homogenised in ice-cold 50 mM Tris-HCl buffer (pH 7.7 when measured at 25° C., 1:40 w/v) and centrifuged at 30,000 g at 4° C. for 10 minutes. The pellet was rehomogenised in the same buffer, incubated at 37° C. for 10 minutes and centrifuged at 30,000 g at 4° C. for 10 minutes. The final pellet was resuspended in 50 mM Tris-HCl buffer (pH 7.7) containing 4 mM CaCl2, 0.1% L-ascorbic acid and 10 μM pargyline hydrochloride (equivalent to 6.25 mg wet weight of tissue/ml) and used immediately in the binding assay. Aliquots (400 μl; equivalent to 2.5 mg wet weight of tissue/tube) of this suspension were added to tubes containing the ligand (50 μl; 2 nM) and distilled water (50 μl total binding) or 5-HT (50 μl; 10 μM; non-specific binding) or test compound (50 μl; at a single concentration of 10^-6 M or at 10 concentrations ranging from 10^-11 -10^-3 M). The ligand was [^3 H]8-hydroxy-2-(dipropylamino)tetralin ([^3 H]8-OH-DPAT) and the mixture was incubated at 25° C. for 30 minutes before the incubation was terminated by rapid filtration.
(§1) The filters were washed with ice-cold Tris-HCl buffer and dried. The filters were punched out into vials, scintillation fluid added and radioactivity determined by liquid scintillation counting. The percentage displacement of specific binding of the tritiated ligand was calculated for the single concentration (10^-6 M) of test compound. Displacement curves were then produced for those compounds which displaced ≥50% of specific binding of the tritiated ligand at 10^-6 M using a range of concentrations of the compound. The concentration which gave 50% inhibition of specific binding (IC50) was obtained from the curve. The inhibition coefficient Ki was then calculated using the formula [formula] in which [ligand] is the concentration of the tritiated ligand used and KD is the equilibrium dissociation constant for the ligand.

The subject of a further assay is α1-adrenoceptors. Description: inhibition of [7-methoxy-3H]prazosin binding to α1-adrenoceptors in rat whole cortical tissue. The note with it: rat whole cortex, 30 min; for % displacement of radio ligand, α1: at 10^-6 M, [7-methoxy-3H]prazosin, 1 µM. As for the experimental part:
Whole cortical tissue from the brains of male Charles River CD rats weighing between 150-250 g were homogenised in ice-cold 50 mM Tris-HCl, pH 7.6 (at 25° C.; 1:40 w/v) and centrifuged at 1000 g at 4° C. for 10 minutes. The supernatant was centrifuged at 30,000 g at 4° C. for 10 minutes. The pellet was rehomogenised in 50 mM Tris-HCl, pH 7.6 (1:40 w/v) and centrifuged at 30,000 g at 4° C. for 10 minutes. The final pellet was resuspended in 50 mM Tris-HCl, pH 7.6 (equivalent to 12.5 mg wet weight of tissue/ml) and used immediately in the binding assay. Aliquots (400 μl; equivalent to 5 mg wet weight of tissue/tube) of this suspension were added to tubes containing the ligand (50 μl; 0.1 nM) and distilled water (50 μl; total binding) or phentolamine (50 μl; 5 μM; non-specific binding) or test compound (50 μl; at a single concentration of 10^-6 M or at 10 concentrations ranging from 10^-11 -10^-3 M). The ligand was [7-methoxy-^3 H]prazosin and the mixture was incubated at 30° C. for 30 minutes before the incubation was terminated by rapid filtration.
as §1

SMILES strings stand for the structures.

T1 sequence (P61169 whole entry): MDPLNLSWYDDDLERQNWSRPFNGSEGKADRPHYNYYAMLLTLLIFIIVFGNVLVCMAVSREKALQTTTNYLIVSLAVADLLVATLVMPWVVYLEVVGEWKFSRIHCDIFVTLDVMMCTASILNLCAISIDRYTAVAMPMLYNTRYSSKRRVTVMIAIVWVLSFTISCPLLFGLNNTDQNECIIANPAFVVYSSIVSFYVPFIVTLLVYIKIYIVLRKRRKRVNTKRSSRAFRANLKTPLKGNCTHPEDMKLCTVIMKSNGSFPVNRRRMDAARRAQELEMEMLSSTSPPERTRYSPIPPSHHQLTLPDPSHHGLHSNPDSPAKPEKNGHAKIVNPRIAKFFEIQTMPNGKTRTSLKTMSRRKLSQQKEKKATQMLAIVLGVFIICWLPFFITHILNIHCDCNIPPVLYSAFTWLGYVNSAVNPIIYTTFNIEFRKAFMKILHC

As to `Cc1ncccc1C(=O)NCC1CCN(C[C@H]2COc3ccc(Br)cc3O2)CC1` [Example 36, (S)-N-{[1-(7-bromo-1,4-benzodioxan-2-ylmethyl)-4-piperidyl]methyl}-2-methylpyridine-3-carboxamide], the inhibition at 1 µM came to 98% on D2 dopamine receptors and 80% on 5-HT1A receptors. For the same molecule, in the assay with α1-adrenoceptors, the “% displacement of radio ligand, α1” value was 54%.
Regarding `O=C(NCC1CCN(C[C@H]2COc3ccc(Cl)cc3O2)CC1)c1cncc(Br)c1` [Example 42, (S)-5-bromo-N-{[1-(7-chloro-1,4-benzodioxan-2-ylmethyl)-4-piperidyl]methyl}pyridine-3-carboxamide], the inhibition at 1 µM at D2 dopamine receptors was determined as 91%; on 5-HT1A receptors it was 92%. Also, in the assay on α1-adrenoceptors, the “% displacement of radio ligand, α1” value is reported as 62%.
Turning to `Nc1ncccc1C(=O)NCC1CCN(C[C@H]2COc3ccc(Br)cc3O2)CC1` [Example 21, (S)-2-amino-N-{[1-(7-bromo-1,4-benzodioxan-2-ylmethyl)-4-piperidyl]methyl}pyridine-3-carboxamide], the Ki (in general, the dissociation constant of the complex between target and ligand, obtained from inhibition or displacement) at D2 dopamine receptors (tritiated (S)-sulpiride 1 nM, 4° C., 40 min) was determined as 0.018 µM; at 5-HT1A receptors ([3H]8-OH-DPAT 2 nM, 25° C., 30 min) it was 0.035 µM; at α1-adrenoceptors ([7-methoxy-3H]prazosin 0.1 nM, 30° C.) it was 0.099 µM.

(Values after patent US5935973A, “Heterocyclcarboxamide derivatives and their use as therapeutic agents” (Knoll Aktiengesellschaft, priority 1995, dated 1999).)
